ChEMBL document CHEMBL1629501, “Regiospecific synthesis and biological evaluation of spirooxindolopyrrolizidines via [3+2] cycloaddition of azomethine ylide” (2010)
≈ marks a conversion by molar mass, not a printed value. Calls of active or inactive are those of the source. The calls are words filed in the database; no cut-off is given here.

Tests used:
[1] = tested on: Aspergillus flavus; test: Antifungal activity against Aspergillus flavus ATCC 485 after 72 to 96 hrs by twofold serial dilution method; format: functional
[2] = tested on: Salmonella typhi; test: Antibacterial activity against Salmonella typhi ATCC 24915 after 24 hrs by twofold serial dilution method; format: functional, Salmonella enterica subsp. enterica serovar Typhi; settings: Salmonella enterica, ATCC 24915, 24 h
[3] = tested on: Bacillus subtilis; test: Antibacterial activity against Bacillus subtilis ATCC 451 after 24 hrs by twofold serial dilution method; format: functional; settings: ATCC 451, 24 h
[4] = tested on: Staphylococcus aureus; test: Antibacterial activity against Staphylococcus aureus ATCC 25825 after 24 hrs by twofold serial dilution method; format: functional; settings: ATCC 25825, 24 h
[5] = tested on: Klebsiella pneumoniae; test: Antibacterial activity against Klebsiella pneumoniae ATCC 15490 after 24 hrs by twofold serial dilution method; format: functional; settings: ATCC 15490, 24 h
[6] = tested on: Cryptococcus neoformans; test: Antifungal activity against Cryptococcus neoformans ATCC 3312 after 72 to 96 hrs by twofold serial dilution method; format: functional
[7] = tested on: Escherichia coli; test: Antibacterial activity against Escherichia coli ATCC 25835 after 24 hrs by twofold serial dilution method; format: functional; settings: ATCC 25835, 24 h
[8] = tested on: Rhizopus; test: Antifungal activity against Rhizopus sp. ATCC 2915 after 72 to 96 hrs by twofold serial dilution method; format: functional
[9] = tested on: Candida albicans; test: Antifungal activity against Candida albicans ATCC 3122 by twofold serial dilution method; format: functional
[10] = tested on: Aspergillus niger; test: Antifungal activity against Aspergillus niger ATCC 598 after 72 to 96 hrs by twofold serial dilution method; format: functional
[11] = tested on: Klebsiella pneumoniae; test: Antibacterial activity against Klebsiella pneumoniae ATCC 15490 at 200 ug/ml after 24 hrs by twofold serial dilution method; format: functional, organism-based

Cc1ccc([C@@H]2C3CCCN3[C@]3(C(=O)Nc4ccccc43)[C@H]2C(=O)c2cccs2)cc1 (stereo partly drawn)
MIC [1]: 25 µg/mL (≈ 58.3 µM)
MIC [2]: 6.25 µg/mL (≈ 14.6 µM)
MIC [3]: 25 µg/mL (≈ 58.3 µM)
MIC [4]: 50 µg/mL (≈ 117 µM)
MIC [5]: 100 µg/mL (≈ 233 µM)
MIC [6]: 100 µg/mL (≈ 233 µM)
MIC [7]: 50 µg/mL (≈ 117 µM)
MIC [8]: 100 µg/mL (≈ 233 µM)
MIC [9]: 100 µg/mL (≈ 233 µM)

C[C@@H]1[C@H](O)[C@@H](C)/C=C/C=C/C=C/C=C/C=C/C=C/C=C/[C@H](O[C@@H]2O[C@H](C)[C@@H](O)[C@H](N)[C@@H]2O)C[C@@H]2O[C@](O)(C[C@@H](O)C[C@@H](O)[C@H](O)CC[C@@H](O)C[C@@H](O)CC(=O)O[C@H]1C)C[C@H](O)[C@H]2C(=O)O [AMPHOTERICIN B]
MIC [1]: 50 µg/mL (≈ 54.1 µM)
MIC [10]: 50 µg/mL (≈ 54.1 µM)
MIC [6]: 25 µg/mL (≈ 27.1 µM)
MIC [8]: 25 µg/mL (≈ 27.1 µM)
MIC [9]: 25 µg/mL (≈ 27.1 µM)

COc1ccc([C@@H]2C3CCCN3[C@]3(C(=O)Nc4ccccc43)[C@H]2C(=O)c2cccs2)cc1 (stereo partly drawn)
MIC [1]: 25 µg/mL (≈ 56.2 µM)
MIC [2]: 100 µg/mL (≈ 225 µM)
MIC [3]: 50 µg/mL (≈ 112 µM)
MIC [4]: 6.25 µg/mL (≈ 14.1 µM)
MIC [10]: 100 µg/mL (≈ 225 µM)
MIC [5]: 25 µg/mL (≈ 56.2 µM)
MIC [6]: 50 µg/mL (≈ 112 µM)
MIC [7]: 100 µg/mL (≈ 225 µM)
MIC [8]: 50 µg/mL (≈ 112 µM)
MIC [9]: 100 µg/mL (≈ 225 µM)

CN(C)c1ccc([C@@H]2C3CCCN3[C@]3(C(=O)Nc4ccccc43)[C@H]2C(=O)c2cccs2)cc1 (stereo partly drawn)
MIC [1]: 200 µg/mL (≈ 437 µM)
MIC [2]: 100 µg/mL (≈ 219 µM)
MIC [3]: 50 µg/mL (≈ 109 µM)
MIC [4]: 200 µg/mL (≈ 437 µM)
MIC [10]: 100 µg/mL (≈ 219 µM)
MIC [5]: 50 µg/mL (≈ 109 µM)
MIC [6]: 50 µg/mL (≈ 109 µM)
MIC [7]: 100 µg/mL (≈ 219 µM)
MIC [8]: 50 µg/mL (≈ 109 µM)
MIC [9]: 100 µg/mL (≈ 219 µM)

O=C(c1cccs1)[C@H]1[C@H](c2ccccc2)C2CCCN2[C@]12C(=O)Nc1ccccc12 (stereo partly drawn)
MIC [1]: 200 µg/mL (≈ 482 µM)
MIC [2]: 100 µg/mL (≈ 241 µM)
MIC [3]: 100 µg/mL (≈ 241 µM)
MIC [4]: 50 µg/mL (≈ 121 µM)
MIC [5]: 200 µg/mL (≈ 482 µM)
MIC [6]: 50 µg/mL (≈ 121 µM)
MIC [7]: 100 µg/mL (≈ 241 µM)
MIC [8]: 200 µg/mL (≈ 482 µM)
MIC [9]: 100 µg/mL (≈ 241 µM)

O=C(c1cccs1)[C@H]1[C@H](c2ccc([N+](=O)[O-])cc2)C2CCCN2[C@]12C(=O)Nc1ccccc12 (stereo partly drawn)
MIC [1]: 200 µg/mL (≈ 435 µM)
MIC [2]: 100 µg/mL (≈ 218 µM)
MIC [3]: 50 µg/mL (≈ 109 µM)
MIC [4]: 100 µg/mL (≈ 218 µM)
MIC [10]: 100 µg/mL (≈ 218 µM)
MIC [5]: 50 µg/mL (≈ 109 µM)
MIC [6]: 100 µg/mL (≈ 218 µM)
MIC [7]: 200 µg/mL (≈ 435 µM)
MIC [8]: 50 µg/mL (≈ 109 µM)
MIC [9]: 200 µg/mL (≈ 435 µM)

O=C(c1cccs1)[C@H]1[C@H](c2ccc(Cl)cc2)C2CCCN2[C@]12C(=O)Nc1ccccc12 (stereo partly drawn)
MIC [1]: 100 µg/mL (≈ 223 µM)
MIC [2]: 6.25 µg/mL (≈ 13.9 µM)
MIC [3]: 12.5 µg/mL (≈ 27.8 µM)
MIC [4]: 6.25 µg/mL (≈ 13.9 µM)
Activity [11]: inactive
MIC [10]: 25 µg/mL (≈ 55.7 µM)
MIC [6]: 12.5 µg/mL (≈ 27.8 µM)
MIC [7]: 25 µg/mL (≈ 55.7 µM)
MIC [8]: 6.25 µg/mL (≈ 13.9 µM)
MIC [9]: 25 µg/mL (≈ 55.7 µM)

O=C(c1cccs1)[C@H]1[C@H](c2ccc(F)cc2)C2CCCN2[C@]12C(=O)Nc1ccccc12 (stereo partly drawn)
MIC [1]: 100 µg/mL (≈ 231 µM)
MIC [2]: 6.25 µg/mL (≈ 14.5 µM)
MIC [3]: 25 µg/mL (≈ 57.8 µM)
MIC [4]: 6.25 µg/mL (≈ 14.5 µM)
Activity [11]: inactive
MIC [10]: 200 µg/mL (≈ 462 µM)
MIC [6]: 25 µg/mL (≈ 57.8 µM)
MIC [7]: 50 µg/mL (≈ 116 µM)
MIC [8]: 6.25 µg/mL (≈ 14.5 µM)
MIC [9]: 6.25 µg/mL (≈ 14.5 µM)

CN[C@@H]1[C@H](O[C@H]2[C@H](O[C@H]3[C@H](O)[C@@H](O)[C@H](N=C(N)N)[C@@H](O)[C@@H]3N=C(N)N)O[C@@H](C)[C@]2(O)C=O)O[C@@H](CO)[C@H](O)[C@H]1O [STREPTOMYCIN]
MIC [2]: 50 µg/mL (≈ 86 µM)
MIC [3]: 12.5 µg/mL (≈ 21.5 µM)
MIC [4]: 50 µg/mL (≈ 86 µM)
MIC [5]: 25 µg/mL (≈ 43 µM)
MIC [7]: 12.5 µg/mL (≈ 21.5 µM)

O=C(c1cccs1)[C@H]1[C@H](c2cccc(Br)c2)C2CCCN2[C@]12C(=O)Nc1ccccc12 (stereo partly drawn)
MIC [1]: 200 µg/mL (≈ 405 µM)
MIC [2]: 100 µg/mL (≈ 203 µM)
MIC [3]: 25 µg/mL (≈ 50.7 µM)
MIC [4]: 25 µg/mL (≈ 50.7 µM)
MIC [10]: 100 µg/mL (≈ 203 µM)
MIC [5]: 100 µg/mL (≈ 203 µM)
MIC [6]: 25 µg/mL (≈ 50.7 µM)
MIC [7]: 50 µg/mL (≈ 101 µM)
MIC [8]: 12.5 µg/mL (≈ 25.3 µM)
MIC [9]: 50 µg/mL (≈ 101 µM)
